Measured values published in PubChem BioAssay (NCI).
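GI50 is the concentration that inhibits growth by half. TGI denotes the concentration required for complete inhibition of growth.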

Assays:
Experiment in all cases: inhibition of tumour cell growth, NCI panel, 384-well format
NCI/ADR-RES ovarian = tested on: NCI/ADR-RES ovarian
MOLT-4 leukemia = tested on: MOLT-4 leukemia
SN12C renal = tested on: SN12C renal
OVCAR-3 ovarian = tested on: OVCAR-3 ovarian
SK-OV-3 ovarian = tested on: SK-OV-3 ovarian
NCI-H322M lung = tested on: NCI-H322M lung
SF-539 CNS = tested on: SF-539 CNS
SK-MEL-2 melanoma = tested on: SK-MEL-2 melanoma
HL-60(TB) leukemia = tested on: HL-60(TB) leukemia
BT-549 breast = tested on: BT-549 breast
OVCAR-5 ovarian = tested on: OVCAR-5 ovarian
NCI-H23 lung = tested on: NCI-H23 lung
SNB-75 CNS = tested on: SNB-75 CNS
PC-3 prostate = tested on: PC-3 prostate
SK-MEL-5 melanoma = tested on: SK-MEL-5 melanoma
DU-145 prostate = tested on: DU-145 prostate
M14 melanoma = tested on: M14 melanoma
UACC-257 melanoma = tested on: UACC-257 melanoma
CAKI-1 renal = tested on: CAKI-1 renal
CCRF-CEM leukemia = tested on: CCRF-CEM leukemia
EKVX NSCLC = tested on: EKVX NSCLC
KM12 colon = tested on: KM12 colon
A549 NSCLC = tested on: A549 NSCLC
OVCAR-8 ovarian = tested on: OVCAR-8 ovarian
A498 renal = tested on: A498 renal
U251 glioblastoma = tested on: U251 glioblastoma
SF-268 CNS = tested on: SF-268 CNS
NCI-H460 NSCLC = tested on: NCI-H460 NSCLC
HCT-116 colon = tested on: HCT-116 colon
MDA-MB-435 melanoma = tested on: MDA-MB-435 melanoma
HOP-62 NSCLC = tested on: HOP-62 NSCLC
MALME-3M melanoma = tested on: MALME-3M melanoma
ACHN renal = tested on: ACHN renal
NCI-H226 lung = tested on: NCI-H226 lung
SNB-19 CNS = tested on: SNB-19 CNS
K-562 leukemia = tested on: K-562 leukemia
MDA-MB-231 breast = tested on: MDA-MB-231 breast
MCF7 breast = tested on: MCF7 breast
SR leukemia = tested on: SR leukemia
RPMI-8226 leukemia = tested on: RPMI-8226 leukemia
HT29 colon = tested on: HT29 colon
SW-620 colon = tested on: SW-620 colon
T-47D breast = tested on: T-47D breast
TK-10 renal = tested on: TK-10 renal
UO-31 renal = tested on: UO-31 renal
HS 578T breast = tested on: HS 578T breast
HCT-15 colon = tested on: HCT-15 colon

Which results are given for `Cc1c(Br)c(Br)c2c3c1nc(N1CCNCC1)n3CCC2`?
GI50 (NCI/ADR-RES ovarian): 1680 nM; TGI (NCI/ADR-RES ovarian): 3270 nM; GI50 (MOLT-4 leukemia): 1230 nM; TGI (MOLT-4 leukemia): 2480 nM; GI50 (SN12C renal): 1640 nM; TGI (SN12C renal): 3020 nM; GI50 (OVCAR-3 ovarian): 1420 nM; TGI (OVCAR-3 ovarian): 2740 nM; GI50 (SK-OV-3 ovarian): 1360 nM; TGI (SK-OV-3 ovarian): 2740 nM; GI50 (NCI-H322M lung): 1730 nM; TGI (NCI-H322M lung): 3420 nM; GI50 (SF-539 CNS): 1640 nM; TGI (SF-539 CNS): 3010 nM; GI50 (SK-MEL-2 melanoma): 1380 nM; TGI (SK-MEL-2 melanoma): 2680 nM; GI50 (HL-60(TB) leukemia): 490 nM; TGI (HL-60(TB) leukemia): 998 nM; GI50 (BT-549 breast): 1350 nM; TGI (BT-549 breast): 2640 nM; GI50 (OVCAR-5 ovarian): 1740 nM; TGI (OVCAR-5 ovarian): 3240 nM; GI50 (NCI-H23 lung): 1660 nM; TGI (NCI-H23 lung): 3090 nM; GI50 (SNB-75 CNS): 1970 nM; TGI (SNB-75 CNS): 3400 nM; GI50 (PC-3 prostate): 1320 nM; TGI (PC-3 prostate): 2670 nM; GI50 (SK-MEL-5 melanoma): 1250 nM; TGI (SK-MEL-5 melanoma): 2510 nM; GI50 (DU-145 prostate): 1670 nM; TGI (DU-145 prostate): 3120 nM; GI50 (M14 melanoma): 1530 nM; TGI (M14 melanoma): 2880 nM; GI50 (UACC-257 melanoma): 1620 nM; TGI (UACC-257 melanoma): 2990 nM; GI50 (CAKI-1 renal): 1590 nM; TGI (CAKI-1 renal): 2990 nM; GI50 (CCRF-CEM leukemia): 885 nM; TGI (CCRF-CEM leukemia): 2170 nM; GI50 (EKVX NSCLC): 1570 nM; TGI (EKVX NSCLC): 2950 nM; GI50 (KM12 colon): 1410 nM; TGI (KM12 colon): 2730 nM; GI50 (A549 NSCLC): 1750 nM; TGI (A549 NSCLC): 3350 nM; GI50 (OVCAR-8 ovarian): 1470 nM; TGI (OVCAR-8 ovarian): 2850 nM; GI50 (A498 renal): 792 nM; TGI (A498 renal): 2070 nM; GI50 (U251 glioblastoma): 1660 nM; TGI (U251 glioblastoma): 3040 nM; GI50 (SF-268 CNS): 1330 nM; TGI (SF-268 CNS): 2650 nM; GI50 (NCI-H460 NSCLC): 1390 nM; TGI (NCI-H460 NSCLC): 2730 nM; GI50 (HCT-116 colon): 1370 nM; TGI (HCT-116 colon): 2700 nM; GI50 (MDA-MB-435 melanoma): 1850 nM; TGI (MDA-MB-435 melanoma): 3270 nM; GI50 (HOP-62 NSCLC): 1720 nM; TGI (HOP-62 NSCLC): 3570 nM; GI50 (MALME-3M melanoma): 1420 nM; TGI (MALME-3M melanoma): 2730 nM; GI50 (ACHN renal): 1370 nM; TGI (ACHN renal): 2730 nM; GI50 (NCI-H226 lung): 1200 nM; TGI (NCI-H226 lung): 2620 nM; GI50 (SNB-19 CNS): 1750 nM; TGI (SNB-19 CNS): 3240 nM; GI50 (K-562 leukemia): 1520 nM; TGI (K-562 leukemia): 2890 nM; GI50 (MDA-MB-231 breast): 1600 nM; TGI (MDA-MB-231 breast): 3240 nM; GI50 (MCF7 breast): 1170 nM; TGI (MCF7 breast): 2420 nM; GI50 (SR leukemia): 1030 nM; TGI (SR leukemia): 2240 nM; GI50 (RPMI-8226 leukemia): 810 nM; TGI (RPMI-8226 leukemia): 2270 nM; GI50 (HT29 colon): 1620 nM; TGI (HT29 colon): 3060 nM; GI50 (SW-620 colon): 1250 nM; TGI (SW-620 colon): 2510 nM; GI50 (T-47D breast): 1520 nM; TGI (T-47D breast): 2860 nM; GI50 (TK-10 renal): 1510 nM; TGI (TK-10 renal): 2880 nM; GI50 (UO-31 renal): 1450 nM; TGI (UO-31 renal): 2780 nM; GI50 (HS 578T breast): 1870 nM; TGI (HS 578T breast): 3280 nM; GI50 (HCT-15 colon): 1600 nM; TGI (HCT-15 colon): 2980 nM
